We go through one molecule from US20210114983A1, “Cathepsin C inhibitors” (National Institute of Biological Sciences, Beijing, priority 2018, published 2021).

The subject of assay [1] is NE. Put plainly: In vivo study, NE activity in rat bone marrow lysates. The settings on record: dose dependent. On the procedure: (§1) C57BL/6 mice (20-25 g) were randomly divided into 4 groups (n=10) and kept at 5 animals per cage. Compound 31 was administered orally twice daily at 6.7, 20, 60 mg kg-1 day-1 for 6 days. The matched vehicle controls (0.5% Methocel™, 0.1% Tween 80 in 100 mM citrate buffer, pH 3) were also administered twice daily for 6 days. Mice were weighed and the dose adjusted accordingly on each day. Sprague Dawley (280-300 g) were conducted by intraperitoneal injection twice daily at 1, 5, 20 mg kg-1 day-1 for 8 days. Blood was sampled through eye puncture at 14 h intervals after the end of the administration. Then mice were terminated and bone marrow cells were immediately extracted from femurs and tibias using ice cold RPMI 1640 medium. Blood cells and bone marrow cells were lysed according to the protocols previously described 8 with some modifications. […]
(§2) The analysis was performed as previously described. […] Synthetic peptide substrates (Gly-Phe-AFC(SMBiochemicals) for CatC, methoxysuccinyl-Ala-Ala-Pro-Val-AMC (Sigma) for NE, minobenzoyl-Val-Ala-Asp-Cys-Ala-Asp-Gin-ethylenediamine 2,4-dinitrophenyl (Peptide Synthetics) for Pr3, and N-succinyl-Ala-Ala-Pro-Phe-ONA (Sigma) for CatG) were added before plates were read at fluorescence or absorbance. Assay kinetics was monitored for up to 90 min. Data were analyzed using GraphPad Prism (GraphPad Software, Inc., San Diego, Calif., USA).

Assay [2] has as its target T1, CatC (Rattus norvegicus, UniProt P80067).
T1 construct: bone marrow cells were immediately extracted from femurs and tibias; from tissue; host or cells: Sprague Dawley rat bone marrow cell lysate
As to the kind of experiment: In vivo study, CatC activity in rat bone marrow lysates. The settings on record: dose dependent. On the procedure:
as §1, §2

For assay [3], the system named is NE. Put plainly: In vivo study, NE activity in mice bone marrow and blood lysates. The settings on record: dose dependent. On the procedure:
as §1, §2

For assay [4], the target named is T2, CatC (Mus musculus, UniProt P97821).
T2 construct: Blood cells and bone marrow cells were lysed; from tissue; host or cells: C57BL/6 mouse bone marrow and blood cell lysates
T2 sequence (P97821 25-134 limits assumed): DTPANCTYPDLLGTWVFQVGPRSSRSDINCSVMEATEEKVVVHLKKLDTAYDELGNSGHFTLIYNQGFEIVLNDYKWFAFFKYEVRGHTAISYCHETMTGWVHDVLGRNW
T2 sequence (P97821 231-393 limits assumed): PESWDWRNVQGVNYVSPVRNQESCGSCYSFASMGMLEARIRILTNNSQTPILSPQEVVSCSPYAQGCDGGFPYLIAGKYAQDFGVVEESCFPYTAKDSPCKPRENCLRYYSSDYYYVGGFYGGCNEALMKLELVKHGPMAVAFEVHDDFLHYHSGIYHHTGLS
T2 sequence (P97821 394-462 limits assumed): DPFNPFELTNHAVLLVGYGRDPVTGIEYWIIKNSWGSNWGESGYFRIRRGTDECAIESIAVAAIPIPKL
As to the kind of experiment: In vivo study, CatC activity in mice bone marrow and blood lysates. The settings on record: dose dependent. On the procedure:
as §1, §2

The subject of assay [5] is acute pancreatitis. Put plainly: Caerulein-induced acute pancreatitis. In kind it is in vivo, C57BL/6 mice. The settings on record: orally twice daily at 20 mg/kg for 6 days. On the procedure:
Induction of Pancreatitis. The acute pancreatitis was induced by hourly intraperitoneal injections of caerulein (50 μg/kg/body weight) for up to 8 h, 36 C57BL/6 mice (20-25 g) were randomly divided into 4 groups (n=5). Compound 28 were administered orally twice daily at 20 mg/kg for 6 days. The matched vehicle controls (0.5% Methocel™, 0.1% Tween 80 in 100 mM citrate buffer, pH 3) were also administered twice daily for 6 days. On the 6th day, mice were induced pancreatitis after compound administration and after the last caerulein injection, mice were administered compound. The sham-treated group was performed with the same as vehicle controls except that saline was administered instead of caerulein. Mice were killed at 1 h after the last caerulein injection. Tissue was harvested immediately after sacrificing the animals. A portion of pancreas samples were frozen in liquid nitrogen for preparation of homogenate. For histology, pancreas was fixed in 4.5% formalin for paraffin embedding and stained with hematoxylin and eosin. Serum samples were prepared and stored at −20 C. […] Compound 28 were administered orally twice daily at 20 mg/kg. The activity inhibition data of the compound-treated groups are shown as the percentage activity of a sham mean (set to 100% activity). Values are means±SEM. […]

For assay [6], the system named is CatG. As to the kind of experiment: In vivo study, CatG activity in rat bone marrow lysates. The settings on record: dose dependent. On the procedure: as §1, §2
Assay [7] concerns the target rhCatC (Cathepsin C) (Homo sapiens, UniProt P53634). As to the kind of experiment: In Vitro CatC Enzyme Assay. The note with it: read-out: Cat C Enzy (Cathepsin C inhibitory activity, IC50). In kind it is biochemical. On the procedure:
In Vitro CatC Enzyme Assay
The CatC enzyme assay was performed in black 384-well plate. Firstly, rhCatC (440 nM) was activated by rhCatL (300 nM) in activation buffer (25 mM MES, 5 mM DTT, pH 6.0) at room temperature for 2 h and then activated rhCatC was diluted to 4.4 nM in assay buffer (25 mM MES, 50 mM NaCl, 5 mM DTT, 0.01% (v/v) Triton X100, pH 6.0), 14 μL activated rhCatC and 1 μL compound in 10% DMSO or 10% DMSO were incubated at room temperature for 3 h, and 5 μL substrate (Gly-Phe-AFC) was added to final concentration of 100 μM. After 60 min reaction, the product of the reaction was measured in the Enspire plate reader using Ex λ400 nm and Em λ505 nm for AFC. A standard irreversible CatC inhibitor 10 by AstraZeneca (J. Med. Chem. 2014, 57, 2357-2367) was used as an inhibitor control in the assay.

Assay [8] relates to CatG. Put plainly: In vivo study, CatG activity in mice bone marrow and blood lysates. The note with it: dose dependent. On the procedure:
as §1, §2

Assay [9] deals with Pr3. As to the kind of experiment: In vivo study, Pr3 activity in mice bone marrow and blood lysates. The settings on record: dose dependent. On the procedure: as §1, §2

Sequence of rhCatC (Cathepsin C) (P53634 25-134 limits assumed): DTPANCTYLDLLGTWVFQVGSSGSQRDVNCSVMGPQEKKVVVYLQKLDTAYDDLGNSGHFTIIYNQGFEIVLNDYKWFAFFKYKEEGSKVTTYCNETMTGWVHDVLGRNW
Sequence of rhCatC (Cathepsin C) (P53634 231-394 limits assumed): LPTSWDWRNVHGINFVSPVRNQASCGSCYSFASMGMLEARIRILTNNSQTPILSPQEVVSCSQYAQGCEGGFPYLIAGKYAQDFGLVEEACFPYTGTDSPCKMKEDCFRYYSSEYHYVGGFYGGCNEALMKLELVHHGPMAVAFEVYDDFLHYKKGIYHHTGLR
Sequence of rhCatC (Cathepsin C) (P53634 395-463 limits assumed): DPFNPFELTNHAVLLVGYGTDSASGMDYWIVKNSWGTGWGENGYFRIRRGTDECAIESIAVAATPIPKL
T1 sequence (P80067 25-134 limits assumed): as the sequence (P97821 25-134 limits assumed) above, with S23H, S24P, D27H, A35P, V42I, L54V, H59Y, R86K, H88S, T89R counted along it
T1 sequence (P80067 230-393 limits assumed): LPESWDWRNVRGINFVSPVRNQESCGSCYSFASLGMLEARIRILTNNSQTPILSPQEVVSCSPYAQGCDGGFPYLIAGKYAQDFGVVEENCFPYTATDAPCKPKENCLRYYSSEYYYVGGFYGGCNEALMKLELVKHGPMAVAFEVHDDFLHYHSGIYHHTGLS
T1 sequence (P80067 394-462 limits assumed): as the sequence (P97821 394-462 limits assumed) above, with R20K, I26L, E27D, I31V, N38Q, V61M counted along it

For orientation: IC50 means the point on the concentration scale where inhibition reaches its midpoint. `C=CC(=O)Nc1cc(Oc2nc(Nc3ccc(N4CCN(C)CC4)cc3OC)ccc2N2CCCCC2)ccc1C` [Compound 28, N-(5-((6-((2-methoxy-4-(4-methylpiperazin-1-yl)phenyl)amino)-3-(piperidin-1-yl)pyridin-2-yl)oxy)-2-methylphenyl)acrylamide]: the “activation of NE” value in assay [1], in assay [3] (mice blood) and in assay [3] (mice bone marrow) was “inhibited the activation” throughout. For the same molecule, the “activation of CatC” value in [2], in assay [4] (mice blood) and in assay [4] (mice bone marrow) was “inhibited the activation” throughout. For the same molecule, in assay [5], the “severity of acute pancreatitis” value is given as “reduced the severity of acute pancreatitis”. Further, the “activation of CatG” value in [6], in assay [8] (mice blood) and in assay [8] (mice bone marrow) was “inhibited the activation” in each case. Moreover, the IC50 in assay [7] is 3 to 300 nM. The “activation of Pr3” value in assay [9] (mice blood) and in assay [9] (mice bone marrow) was “inhibited the activation” in each case.
